Experimental data as given in patent US20100158973A1 (HADASIT MEDICAL RESEARCH SERVICES & DEVELOPMENT LlIMITED, priority 2006, published 2010).
Values joined by “and” are separate entries in the source; they are usually repeats but may differ in a detail not shown here. Equal values may be shown once. “Also recorded” adds a separate entry of the source.

Experiments:
[1] = tested on: SD/Hsd male rats, surgically induced infarct; test: Infarct (scar) size after LAD ligation, Evans blue/TTC staining and planimetry; format: in vivo
[2] = tested on: SD/Hsd male rats, surgically induced infarct; test: Histopathology of infarcted hearts (hematoxylin and eosin, Masson trichrome); format: in vivo
[3] = tested on: SD/Hsd male rats, surgically induced infarct; test: Echocardiography before and 7 days after LAD ligation; conditions: for LVEDD (left ventricular end-diastolic diameter) / LVESD (left ventricular end-systolic diameter) / SF (shortening fraction): CBD group
Protocol: In the following experiment 14 SD/Hsd male rats weighing 275-350 g were used.
Rats were anesthetized with ketamine (10%): xylazine (2%), 0.85:0.15 IM 0.1 ml/kg. Animals were intubated and ventilated with a small animal respirator (Harvard Sc.). The heart was exposed via left sternotomy and the LAD was reversibly occluded for 30 minutes using a snare fashioned from an encircling silk ligature and a section of 5 French feeding tube. Coronary occlusion and reperfusion were verified by visual inspection. Following reperfusion the released ligature was left in situ. The chest was then closed in layers using uninterrupted sutures. Rats were extubated, received 30-50 cc saline subcutaneously to replace lost body fluids, and were treated with Rymadil (5 mg/kg, i.p.) analgesia for 3 days. […] The drug and the vehicle solutions were prepared in separate laboratories, ensuring that the staff (e.g. echocardiography and pathology) was blinded to the treatment arm. After 7 days, animals were re-anesthetized and ventilated as described above. The LAD was permanently re-occluded, and the heart harvested for further analysis.
Rats were anesthetized with Ketamine (10%):Xylasine (2%), 0.85:0.15 IM 0.1 ml/kg and the chest cavity was shaved. Echo was carried out prior to surgery and 1 week after, prior to sacrifice of the animals.
Echo imaging was performed using a GE Vivid3 platform, equipped with a 13 MHz linear epiaortic transducer (General Electric, Haifa, Israel). The probe was positioned in a left parasternal position, and 2D imaging of the heart in the short axis was performed using a high frame rate. This image was used to guide an M-mode cursor down the medial axis of the left ventricle. Measurements were performed in triplicates using the leading edge convention for myocardial borders.
The following parameters were measured: Left ventricular end-diastolic diameter (LVEDD) Left ventricular end-systolic diameter (LVESD); anterior wall thickness in diastole and systole (AWTd, AWTs); and Heart rate (HR).
Shortening fraction (SF) was calculated using the above variables.

ApoE−/− mice [4] = test: Plasma triglyceride levels in ApoE−/− mice on high-fat diet; conditions: 20 IP injections of 5 mg/kg, 12 h fasting
Protocol: (§1) Twelve- to fourteen-week-old male and female ApoE ApoE^−/− mice on a C57B1/6 background were fed a high-fat diet (Takland adjusted calories, Western-type diet: 2.1% fat, 15% cholesterol, 19.5% casein) for 12 weeks.
Blood samples were collected in capillary tubes following twelve hours of fasting, and immediately centrifuged for plasma removal.
(§2) Control mice were injected with Cremophor:ethanol:saline 1:1:18. Plasma triglyceride levels were assayed following twelve hours fasting using an enzymatic reagent (Sigma™).

ApoE−/− mice [5] = test: LDL cholesterol levels in ApoE−/− mice (Friedewald formula); conditions: high-fat diet, 20 IP injections of 5 mg/kg
Protocol: as §1
Blood samples were collected in capillary tubes following twelve hours of fasting, and immediately centrifuged for plasma removal. Plasma samples were assayed for total cholesterol using conventional colorimetric assays.
as §2
LDLc=TC−triglycerides levels/5-HDLc
Statistical analysis was by ANOVA test (ANalysis Of VAriance between groups).

ApoE−/− mice [6] = test: Size of atherosclerotic plaques in the aorta of ApoE−/− mice
Protocol: ApoE knock-out (ApoE^−/−) mice are known to spontaneously develop atherosclerosis, which may be enhanced by a high-fat diet. Twelve- to fourteen-week-old male and female ApoE ApoE^−/− mice on a C57B1/6 background were fed a high-fat diet (Takland adjusted calories, Western-type diet: 2.1% fat, 15% cholesterol, 19.5% casein) for 12 weeks.
Blood samples were collected in capillary tubes following twelve hours of fasting, and immediately centrifuged for plasma removal. Plasma samples were assayed for total cholesterol using conventional colorimetric assays. Mice were then sacrificed, and their aorta were extracted and examined for the presence and size of atherosclerotic lesions (plaques).
as §2

[7] = Day 7 after LAD ligation, 5 mg/kg IP daily

Substance: Cannabidiol [CBD]
- % infarct size ([1]; individual animals of CBD-treated group): 16.3% and 15.3% and 14.6% and 13.9% and 6.5% and 7.5% and 7.6% (2×) and 8.1% and 7.8%
- mean infarct size as percent of area at risk ([1]; rats, 5 mg/kg IP 1 h before surgery and daily, 7 days, control 28.2±7.0%): 9.6±3.9%
- inflammation in heart histology ([2]; FIG. 4B, animal treated with CBD): almost total lack of inflammation
- granulation tissue formation with early collagen deposition vs control ([2]; Masson trichrome staining): similar; also recorded: did not affect
- inflammatory infiltrate grade (leukocytes infiltrating the border of the infarcted zone) ([2]; graded by pathologist, control animals 2-3): 1+ or nullnil (0)
- LVEDD (left ventricular end-diastolic diameter) ([3]; Day 0 (baseline)): 0.70 ± 0.06 mm
- LVESD (left ventricular end-systolic diameter) ([3]; Day 0 (baseline)): 0.36 ± 0.08 mm
- SF (shortening fraction) ([3]; Day 0 (baseline)): 48.27±8.6%
- LVEDD (left ventricular end-diastolic diameter) [3, 7]: 0.72 ± 0.05 mm
- LVESD (left ventricular end-systolic diameter) [3, 7]: 0.43 ± 0.07 mm
- SF (shortening fraction) ([3]; Day 7 after LAD ligation, 5 mg/kg IP daily, 5 mg/kg): 39.7±8.22%
- LV function in M mode echocardiography ([3]; FIG. 4D, CBD-treated animal): preserved LV function
- lowering of plasma triglyceride levels compared with control-treated mice (ApoE−/− mice [4]): 59%
- lowering of LDL levels vs control (ApoE−/− mice [5]): 17%
- LDL cholesterol level (ApoE−/− mice [5]; calculated by Friedewald formula): 1300 mg/dL
- atherosclerotic plaques, average % of the aorta area (ApoE−/− mice [6]; first experiment, 12 CBD-treated mice, control 5.5%): 3.18%
- plaque area, % of the total aorta area (ApoE−/− mice [6]; second experiment, control 10.6%): 5.09%
